In paper PMC9114170, “Investigation of the Role of Hydrophobic Amino Acids on the Structure-Activity Relationship in the Antimicrobial Venom Peptide Ponericin L1” (The Journal of membrane biology, 2021):
Ends that are not written are not given here.

Assays:
[1] = system: B. subtilis; format: cell-based; conditions: highest concentration tested 15 μM
Protocol: (§1) Six different strains of bacteria were streaked on LB-Miller agar plates from a frozen glycerol stock derived from the original samples shipped from CGSC (Coli Genetic Stock Center, Yale University) or ATCC (American Type Culture Collection) (Escherichia coli D31 CGSC 5165 ([Burman, Nordstrom & Boman, 1968]), Staphylococcus aureus ATCC 35556. Pseudomonas aeruginosa PA-01 ATCC 47085, Acinetobacter baumannii ATCC 19606). For each of the strains a liquid overnight culture was prepared using a single colony into fresh LB broth and placed in a shaking incubator for ~ 18 hours at 37 C at 225 rpm. After the incubation period, a 1:200 dilution was made in fresh LB broth and then used for experimentation. Minimal Inhibitory Concentration (MIC) determinations were performed using mid-log phase bacteria diluted to 5 x 10^5 CFU/mL. Next, 90 μL of this diluted culture was then pipetted into a sterile 96-well plate that contains serially diluted aliquots of the peptide variants to consist of a total volume of 100 μL. This plate was then incubated for 18 hours at 37 C. Bacterial growth was determined by taking an OD600 measurement using a Spectramax M5 multimode plate reader post incubation. Minimal Bactericidal Concentration (MBC) was performed by taking 1 μL of the culture from the MIC plate and then pipetting it on to a fresh LB agar plate. After plating this culture, the plate was then incubated overnight at 37 C. MBC was determined by the growth or the lack of growth from each well on the agar plate.
(§2) The ability of L1 and the hydrophobic variants to act as antimicrobials was investigated using the Minimal Inhibitory Concentration (MIC) and Minimal Bactericidal Concentration (MBC) assays as previously described ([Wiegand, Hilpert & Hancock, 2008]). The MIC is determined as the lowest concentration of peptide required to inhibit bacterial growth in solution, while the MBC is the lowest concentration required to act in a bactericidal mechanism (as opposed to bacteriostatic) and is determined by plating MIC cultures on antimicrobial-free media. Peptides were screened against E. coli, S. aureus, A. baumannii, P. aeruginosa, B. subtilis, and K. pneumoniae.

[2] = system: Pseudomonas aeruginosa PA-01 ATCC 47085; format: cell-based; conditions: highest concentration tested 15 μM
Protocol: as §1, §2

[3] = Red edge excitation shift (REES) solution aggregation assay; format: physicochemical; conditions: 2 μM peptide in PBS pH 7.0, λex 280 to 307 nm, emission 310 to 410 nm, Trp fluorescence, average of three replicates
Excerpt: All fluorescence spectroscopy experiments were preformed using a JY-Horiba Fluoromax4 instrument. Excitation and emission slit widths were kept consistent at 2.5 nm. Semi-micro quartz cuvettes were utilized for each experiment. The following formula was used to calculate a spectral barycenter for each experiment: (1) B=∑λ*i/∑i where B is the barycenter, λ is the wavelength, and i is the intensity at the specified wavelength. An entire emission spectrum from 300-400 was used the carry out the calculation of barycenter.
Red edge excitation shift (REES) experiments utilized excitation at 6 different wavelengths (λex = 280, 290, 295, 300, 305, and 307 nm) and the same emission range of 310 to 410 nm. Samples were similarly prepared as above. A blank only containing PBS buffer was used as background to correct the spectra after each addition.
Aggregation of peptides was assessed utilizing the intrinsic fluorescence properties of the Trp residue in the L1 sequence. […] Differences in the side chain motion/dynamics of the Trp residue and the local environment around the Trp can be observed by monitoring the red-edge excitation shifts (REES). […]

[4] = Peptide binding to lipid vesicles by Trp emission barycenter shift; format: physicochemical; conditions: anionic and zwitterionic SUVs titrated into 2 μM peptide in PBS; λex 280 nm, λem 300 to 400 nm
Protocol: To form small unilamellar vesicles (SUVs) sonication or ethanol dilution methods were implemented ([Caputo & London, 2019]). In all cases, lipid vesicle preparation was the same. Depending on the lipid composition, appropriate volumes of lipids in chloroform were mixed in a glass tube and then allowed to dry under N2 gas for 15 minutes. The lipid films were then placed in a vacuum desiccator and allowed to dry further under a vacuum for 1 hour. For vesicles formed through ethanol dilution methods, 10 μL of pure ethanol was added to the film, and then vortex until the dissipation of the film. While continuing to vortex, the appropriate amount of PBS was added. For vesicles formed using the method of sonication, PBS was added directly to the tube while being vortexed to create multilamellar vesicles (MLVs). […]
All fluorescence spectroscopy experiments were preformed using a JY-Horiba Fluoromax4 instrument. […]
Considering that the first step in the mechanism of action of many AMPs is the binding to the bacterial cell surface, binding to model lipid vesicles was performed. […] The impact of lipid composition on binding to model vesicles was investigated using a simple vesicle titration experiment in which Trp fluorescence was measured after addition of lipid vesicles. […]

[5] = 1 μL of MIC plate culture on LB agar, overnight at 37 C
[6] = LB broth, 5 x 10^5 CFU/mL, 18 hours at 37 C, OD600

FFKEFWTKMKGAGKAFFGKFKGFF [L1F]
MBC B. subtilis [1, 5]: 1.88 µM | MIC B. subtilis [1, 6]: 1.88 µM | MBC P. aeruginosa [2, 5]: >15 µM | MIC P. aeruginosa [2, 6]: 7.5 µM | REES total shift [3]: ~ 2 nm | Extent of spectral shift (Trp emission barycenter) on binding lipid vesicles [4]: ~ 14 nm
